Series [1] is described as follows: Naltrexone plasma pharmacokinetics from the literature and its reinterpretation. The series is classed as in vivo. An excerpt:
Phase II (RLD)—Days two to thirty. […] The higher serum levels of this phase serve two purposes. First, for the particular therapeutic agent chosen, the long-term maintenance dose releases drug slowly at a constant (zero order) rate. […] It has the disadvantage, however, that the plasma level will slowly rise until it reaches a plateau, which is referred to as steady state. The time to reach steady state is a function of the drug's half-life, a measure of the time it takes for half of the drug to be eliminated from the body. It takes approximately six half-lives to reach steady state for any drug. […] During this time it is essential that an additional source of drug be administered as a receptor loading dose to continue to saturate the drug receptors. A second reason for this loading dose, particularly for drugs used to treat addictions, is to prevent cravings and other withdrawal symptoms.
A period of approximately 3.3 half-lives is necessary to achieve a 90% receptor occupancy level.
Phase II (months 1 to 2) provides higher levels than the minimum needed to prevent narcotic highs. […] For pharmacokinetic reasons, the higher levels are also needed until the steady state distribution levels are reached through the slower maintenance dose.

The next series concerns opiate receptors. As to conditions: recommended dose of 50 mg taken orally; cited from earlier work.

As for `O=C1CC[C@@]2(O)[C@H]3Cc4ccc(O)c5c4[C@@]2(CCN3CC2CC2)[C@H]1O5` [naltrexone], the “time to reach 90% receptor occupancy level” value in series [1] (calculated as 3.3×72 hr at the maintenance rate) is listed as “about 10 days”. In addition, the “time to reach 98% occupancy” value in series [1] (maintenance rate) is given as “about 20 days”. In addition, the steady state level result in series [1] (subcutaneous product, zero order rate of 0.56 mg/day) is recorded as “about 7.5 ng/ml”. Moreover, the “duration of complete blockage” value in the series on opiate receptors was 24 h.

The values above are taken from US20020034534A1, “System and method for delivering a therapeutic agent over an extended period of time in conjuction with a receptor loading dose of the therapeutic agent” (priority 1999, published 2002).
